What all share (type): biochemical
One assay concerns the target T1, FeFPPS (Flavivirga eckloniae, UniProt A0A2K9PVX7).
T1 construct: gene C1H87_21960; codon-optimized, N-terminal His8 tag kept, pET28b(+), E. coli BL21 Star (DE3), TALON
T1 sequence (A0A2K9PVX7 1-289): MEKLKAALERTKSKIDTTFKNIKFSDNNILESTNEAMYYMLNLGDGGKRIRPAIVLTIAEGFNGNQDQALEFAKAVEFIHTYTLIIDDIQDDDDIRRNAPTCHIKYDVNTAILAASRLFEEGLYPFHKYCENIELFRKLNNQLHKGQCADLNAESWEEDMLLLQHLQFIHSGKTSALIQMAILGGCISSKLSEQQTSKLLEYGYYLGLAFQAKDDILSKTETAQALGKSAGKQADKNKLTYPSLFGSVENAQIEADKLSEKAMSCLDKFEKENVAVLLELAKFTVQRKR
Kind of assay: GC-MS of farnesol after alkaline phosphatase (BAP) treatment. The following applies: 100 μM GPP with 100 μM IPP; otherwise same.

The target in another assay is T2, AsFPPS (Aquimarina spongiae, UniProt A0A1M6CXH4).
T2 construct: gene SAMN04488508_102321; codon-optimized, N-terminal His8 tag kept, pET28b(+), E. coli BL21 Star (DE3), TALON
T2 sequence (A0A1M6CXH4 1-289): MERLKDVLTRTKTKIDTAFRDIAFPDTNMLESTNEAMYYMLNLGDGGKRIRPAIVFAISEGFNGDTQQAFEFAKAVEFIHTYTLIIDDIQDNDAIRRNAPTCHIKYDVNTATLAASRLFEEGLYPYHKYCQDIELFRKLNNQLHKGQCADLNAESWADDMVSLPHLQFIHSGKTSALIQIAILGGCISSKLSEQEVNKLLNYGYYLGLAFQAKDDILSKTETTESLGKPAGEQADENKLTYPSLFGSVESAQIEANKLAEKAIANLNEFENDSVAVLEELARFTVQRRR
The assay is described as above. The following applies: 100 μM GPP with 100 μM IPP; otherwise same.

The target in another assay is T3, Sc terpene synthase β (Sorangium cellulosum, UniProt Z9XJ57G830).
T3 construct: codon-optimized, N-terminal His8 tag kept, pET28b(+), E. coli BL21 Star (DE3), TALON; single β domain with DxDVT134-138 motif
T3 sequence (Z9XJ57G830 1-342): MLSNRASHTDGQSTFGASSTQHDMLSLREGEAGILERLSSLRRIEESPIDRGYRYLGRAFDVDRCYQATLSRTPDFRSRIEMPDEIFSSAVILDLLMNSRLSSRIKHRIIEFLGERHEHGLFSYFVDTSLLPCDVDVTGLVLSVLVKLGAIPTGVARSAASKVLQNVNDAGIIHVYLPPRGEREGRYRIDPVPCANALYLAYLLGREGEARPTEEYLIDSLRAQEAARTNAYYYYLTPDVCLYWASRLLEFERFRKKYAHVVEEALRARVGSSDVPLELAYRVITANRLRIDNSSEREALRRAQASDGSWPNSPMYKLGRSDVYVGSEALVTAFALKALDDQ
The assay can be described thus: GC-MS of product after alkaline phosphatase (BAP) treatment. The following applies: […] FPP, […] enzyme, […] Tris-HCl pH […] MgCl2 (Mg2+ not required), […] °C; cyclization to a diphosphate, product seen only after BAP.

On to `CC(C)=CCC/C(C)=C/COP(=O)(O)OP(=O)(O)O` [geranyl pyrophosphate], for which the “GC-MS of farnesol after alkaline phosphatase (BAP) treatment” value on FeFPPS and on AsFPPS was “dimethylallyl pyrophosphate (DMAPP) or geranyl pyrophosphate (GPP) as an allylic substrate” in each case.

Regarding `CC(C)=CCC/C(C)=C/CC/C(C)=C/COP(=O)(O)OP(=O)(O)O` [farnesyl pyrophosphate], the “GC-MS of product after alkaline phosphatase (BAP) treatment” value at Sc terpene synthase β was “Sc terpene synthase β is monofunctional and performs only the cyclization step of FPP”.

The record behind these values is doi:10.1101/2025.09.20.677545v1, “Parallel Evolution of a Drimenol Biosynthetic Gene Cluster Unique to Marine Bacteria” (biorxiv, 2025).
